How the values were obtained:
[1] = system: beet armyworm (BAW; Spodoptera exigua: Lepidoptera); assay: 128-well diet tray assay on beet armyworm (BAW 50); format: in vivo; settings: for BAW 50 ug/cm2: 128-well diet tray assay, 50 μg/cm^2 of test compound on diet, second instar BAW larvae, mortality class
How it was run: (§1)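 Spodoptera exigua eggs on artificial diet in 96-well plates, surface-treated with 12 μg compound in DMSO-acetone-water; dark, 29° C, mortality at 6 d, six replicates. 128-well trays: second-instar larvae on diet treated at 50 μg/cm^2, 25° C, 14:10 light-dark, six days, mortality averaged over eight wells.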

[2] = system: beet armyworm (BAW; Spodoptera exigua: Lepidoptera); assay: 96-well microtiter plate-based high throughput (HTS) diet bioassay on beet armyworm (BAW HTS); format: in vivo; settings: for BAW HTS: 12 μg test compound per well, BAW eggs, mortality at 6 d post-treatment, mortality class
How it was run: as §1

[3] = 96-well microtiter plate HTS diet assay

SMILES	BAW 50 ug/cm2 [1]	pest or weed control at 50 µg/cm2, 50 µg/cm2 ([1]; Spodoptera exigua, 144 h, read-out: BAW 50 ug/cm2) [%]	BAW HTS [2, 3]	pest or weed control at 12 µg/well, 12 µg/well ([2]; Spodoptera exigua, 144 h, read-out: BAW HTS) [%]	BAW HTS ([2]; 96-well HTS diet assay)
COc1ccc(-c2nccc(-c3ccc(NC(=O)O[C@@H]4O[C@@H](C)[C@H](OC)[C@@H](OC)[C@H]4OC)cc3)n2)cc1 [Compound 234, {4-[2-(4-methoxyphenyl)-pyrimidin-4-yl]-phenyl}-carbamic acid (2S,3R,4R,5S,6S)-3,4,5-trimethoxy-6-methyl-tetrahydropyran-2-yl ester]	B (either (1) the compound was tested and less than 50 percent mortality was observed or (2) the compound was not tested)	< 50	B (either (1) the compound was tested and less than 50 percent mortality was observed or (2) the compound was not tested)	< 50	–
CO[C@@H]1[C@@H](OC)[C@H](C)O[C@@H](OC(=O)Nc2ccc(-c3cc(C(F)(F)F)nc(-c4ccc(C(F)(F)F)cc4)n3)cc2)[C@@H]1OC [Compound 235]	B (either (1) the compound was tested and less than 50 percent mortality was observed or (2) the compound was not tested)	–	A (the compound was tested and at least 50 percent mortality was observed)	–	A (the compound was tested and at least 50 percent mortality was observed)
CCCO[C@@H]1[C@@H](OC)[C@H](C)O[C@@H](OC(=O)Nc2ccc(-c3ncc(-c4ccc(OC(F)(F)F)cc4)cn3)cc2)[C@@H]1OC [Compound 236]	A (the compound was tested and at least 50 percent mortality was observed)	–	B (either (1) the compound was tested and less than 50 percent mortality was observed or (2) the compound was not tested)	–	B (either (1) the compound was tested and less than 50 percent mortality was observed or (2) the compound was not tested)
CCO[C@@H]1[C@@H](OC)[C@H](C)O[C@@H](OC(=O)Nc2ccc(-c3nncc(-c4ccc(OC(F)(F)F)cc4)n3)cc2)[C@@H]1OC [Compound 237]	A (the compound was tested and at least 50 percent mortality was observed)	–	B (either (1) the compound was tested and less than 50 percent mortality was observed or (2) the compound was not tested)	–	B (either (1) the compound was tested and less than 50 percent mortality was observed or (2) the compound was not tested)
CCO[C@@H]1[C@@H](OC)[C@H](C)O[C@@H](OC(=O)Nc2ccc(-c3cnnc(-c4ccc(OC(F)(F)F)cc4)n3)cc2)[C@@H]1OC [Compound 238]	A (the compound was tested and at least 50 percent mortality was observed)	–	B (either (1) the compound was tested and less than 50 percent mortality was observed or (2) the compound was not tested)	–	B (either (1) the compound was tested and less than 50 percent mortality was observed or (2) the compound was not tested)
CCO[C@@H]1[C@@H](OC)[C@H](C)O[C@@H](OC(=O)Nc2ccc(-c3ccc(-c4ccc(OC(F)(F)F)cc4)cn3)cc2)[C@@H]1OC [Compound 239]	B (either (1) the compound was tested and less than 50 percent mortality was observed or (2) the compound was not tested)	–	B (either (1) the compound was tested and less than 50 percent mortality was observed or (2) the compound was not tested)	–	B (either (1) the compound was tested and less than 50 percent mortality was observed or (2) the compound was not tested)
CCO[C@@H]1[C@@H](OC)[C@H](C)O[C@@H](OC(=O)Nc2ccc(-c3noc(-c4ccc(OC(F)(F)F)cc4)n3)cc2)[C@@H]1OC [Compound 240]	A (the compound was tested and at least 50 percent mortality was observed)	–	A (the compound was tested and at least 50 percent mortality was observed)	–	A (the compound was tested and at least 50 percent mortality was observed)
CCO[C@@H]1[C@@H](OC)[C@H](C)O[C@@H](OC(=O)Nc2ccc(N3CCN(c4ccc(OC(F)(F)F)cc4)CC3)cc2)[C@@H]1OC [Compound 241]	B (either (1) the compound was tested and less than 50 percent mortality was observed or (2) the compound was not tested)	–	B (either (1) the compound was tested and less than 50 percent mortality was observed or (2) the compound was not tested)	–	B (either (1) the compound was tested and less than 50 percent mortality was observed or (2) the compound was not tested)
CCO[C@@H]1[C@@H](OC)[C@H](C)O[C@@H](OC(=O)Nc2ccc(N3CC(=O)N(c4ccc(OC(F)(F)F)cc4)CC3=O)cc2)[C@@H]1OC [Compound 242]	A (the compound was tested and at least 50 percent mortality was observed)	–	B (either (1) the compound was tested and less than 50 percent mortality was observed or (2) the compound was not tested)	–	B (either (1) the compound was tested and less than 50 percent mortality was observed or (2) the compound was not tested)
CCO[C@@H]1[C@@H](OC)[C@H](C)O[C@@H](OC(=O)Nc2ccc(N3CC(=O)N(c4ccc(OC(F)(F)C(F)(F)F)cc4)CC3=O)cc2)[C@@H]1OC [Compound 243]	B (either (1) the compound was tested and less than 50 percent mortality was observed or (2) the compound was not tested)	–	B (either (1) the compound was tested and less than 50 percent mortality was observed or (2) the compound was not tested)	–	B (either (1) the compound was tested and less than 50 percent mortality was observed or (2) the compound was not tested)
CO[C@H]1[C@H](C)O[C@H](OC(=O)Nc2ccc(-c3ncn(-c4ccc(OC(F)(F)C(F)(F)F)cc4)n3)cc2)C[C@@H]1OC [Compound 245]	A (the compound was tested and at least 50 percent mortality was observed)	–	B (either (1) the compound was tested and less than 50 percent mortality was observed or (2) the compound was not tested)	–	B (either (1) the compound was tested and less than 50 percent mortality was observed or (2) the compound was not tested)
CCO[C@@H]1[C@@H](OC)[C@H](C)O[C@@H](OC(=O)Nc2ccc(-c3ccc(-c4ccc(OC(F)(F)F)cc4)nn3)cc2)[C@@H]1OC [Compound 248]	B (either (1) the compound was tested and less than 50 percent mortality was observed or (2) the compound was not tested)	–	B (either (1) the compound was tested and less than 50 percent mortality was observed or (2) the compound was not tested)	–	B (either (1) the compound was tested and less than 50 percent mortality was observed or (2) the compound was not tested)
CCO[C@@H]1[C@@H](OC)[C@H](C)O[C@@H](OC(=O)Nc2ccc(-c3nn(-c4ccc(C(F)(F)F)cc4)c(=O)o3)cc2)[C@@H]1OC [Compound 249]	B (either (1) the compound was tested and less than 50 percent mortality was observed or (2) the compound was not tested)	–	B (either (1) the compound was tested and less than 50 percent mortality was observed or (2) the compound was not tested)	–	B (either (1) the compound was tested and less than 50 percent mortality was observed or (2) the compound was not tested)

From US8178658B2 (Dow AgroSciences, LLC, priority 2008, dated 2012)
